Source: patent US7531545B2, “2-amino-3,4-dihydro-pyrido[3,4-d]pyrimidine derivatives useful as inhibitors of β-secretase (BACE)” (Janssen Pharmaceutica, N.V., priority 2005, dated 2009)
Where “and” joins values, the source holds several entries; their conditions need not be identical. Identical values can stand only once. Counter-ions that a name gives are not always drawn. Like-named read-outs stand apart in the source and are kept apart here.

Molecular target: human BACE-1 (Homo sapiens, UniProt P56817)
Test: CEREP BACE Inhibition Assay
Assay type: biochemical
Settings: for inhibition at 1 µM: read-out: % Inhibition @ 1.0 μM
Procedure: More specifically the assay, run at 50 μL in a 96 well plate, evaluated the effect of test compound on the activity of the human BACE-1 quantified by measuring the formation of Mca-S-E-V-N-L-NH2 from […], using a recombinant enzyme. The test compound, reference compound or water (control) were added to a buffer containing 0.09 M sodium acetate (pH 4.5) and 0.25 μg BACE-1. Compound interference with the fluorimetric detection method due to autofluorescence was then checked by measurements at the wavelengths defined to evaluate the enzyme activity. […] For control basal measurement, the substrate was omitted from the reaction mixture. […] The standard inhibitory reference compound was OM99-2, which was tested in each experiment at several concentrations to obtain an inhibition curve from which its IC50 value was calculated.

[1] = 1.0 μM, percent inhibition of the control activity, recombinant enzyme
[2] = recombinant enzyme, read-out: IC50
[3] = percent inhibition of the control activity, recombinant enzyme

human BACE-1, sequence (P56817 46-501): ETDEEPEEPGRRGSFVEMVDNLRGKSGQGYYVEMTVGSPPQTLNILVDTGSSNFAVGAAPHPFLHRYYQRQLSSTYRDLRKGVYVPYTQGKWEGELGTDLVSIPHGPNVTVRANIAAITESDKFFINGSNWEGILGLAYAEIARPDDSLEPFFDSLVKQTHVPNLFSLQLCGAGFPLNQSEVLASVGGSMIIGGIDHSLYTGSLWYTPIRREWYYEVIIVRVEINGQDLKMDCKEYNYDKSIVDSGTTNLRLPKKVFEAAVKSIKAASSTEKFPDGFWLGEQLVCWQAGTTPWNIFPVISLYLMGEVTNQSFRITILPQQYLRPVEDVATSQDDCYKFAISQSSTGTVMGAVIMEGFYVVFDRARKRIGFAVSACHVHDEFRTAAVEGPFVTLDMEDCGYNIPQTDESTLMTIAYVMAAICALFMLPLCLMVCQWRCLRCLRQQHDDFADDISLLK

Structure (SMILES)	inhibition at 1 µM [1] [%]	IC50 [2]	other results
CN(CCC[C@@H](C1CCCCC1)N1Cc2cc(Oc3ccccc3)ncc2N=C1N)C1CCCCC1 [Compound 187]	99	0.044 µM	–
CC(C)CN(CCN1CCOCC1)C(=O)CC[C@@H](C1CCCCC1)N1Cc2cc(Oc3ccccc3)ncc2N=C1N [Compound 189]	99	0.14 µM	–
CC(C)CN(CCN1CCOCC1)C(=O)CC[C@@H](C(C)C)N1Cc2cc(Oc3ccccc3)ncc2N=C1N [Compound 190]	86	0.19 µM	–
CC(C)CN(CCC[C@@H](C1CCCCC1)N1Cc2cc(Oc3ccccc3)ncc2N=C1N)CCN1CCOCC1 [Compound 192]	101	0.073 µM	–
CC(C)CN(CCC[C@@H](C(C)C)N1Cc2cc(Oc3ccccc3)ncc2N=C1N)CCN1CCOCC1 [Compound 193]	60	0.054 µM	–
CN(C(=O)CCCN1Cc2cc(Oc3ccccc3)ncc2N=C1N)C1CCCCC1 [Compound 196, 4-(2-Amino-6-phenoxy-4H-pyrido[3,4-d]pyrimidin-3-yl)-N-cyclohexyl-N-methyl-butyramide]	34	–	–
NC1=Nc2cnc(Oc3ccccc3)cc2CN1[C@@H](CCn1cc(C2CCCCC2)nn1)C1CCCCC1 [Compound 198, 3-[—(S)-cyclohexyl-3-(4-cyclohexyl-[1,2,3]triazol-1-yl)-propyl]-6-phenoxy-3,4-dihydro-pyrido[3,4-d]pyrimidin-2-ylamine]	95	0.14 µM	–
CC(C)(C)c1cn(CC[C@@H](C2CCCCC2)N2Cc3cc(Oc4ccccc4)ncc3N=C2N)nn1 [Compound 199]	100	0.086 µM	–
CC(C)(C)CNC(=O)C[C@@H](C1CCCCC1)N1Cc2cc(Oc3ccccc3)ncc2N=C1N [Compound 200]	50	0.78 µM and 0.76 µM	% Inhibition @ 1.0 μM [1]: 53%
CC(C)(C)CCNC(=O)C[C@@H](C1CCCCC1)N1Cc2cc(Oc3ccccc3)ncc2N=C1N [Compound 202, 3-(2-Amino-6-phenoxy-4H-pyrido[3,4-d]pyrimidin-3-yl)-3(S)-cyclohexyl-N-(3,3-dimethyl-butyl)-propionamide hydrochloride salt]	88	0.22 µM	% Inhibition @ 1.0 μM (1.0 μM, percent inhibition of the control activity, recombinant enzyme, hydrochloride salt): 73%
CC(C)(C)CNC(=O)CC[C@@H](C1CCCCC1)N1Cc2cc(Oc3ccccc3)ncc2N=C1N [Compound 204]	100	0.077 µM	–
CN(C(=O)C[C@@H](C1CCCCC1)N1Cc2cc(Oc3ccccc3)ncc2N=C1N)C1CCCCC1 [Compound 205]	81	0.29 µM	–
CN(CC[C@@H](C1CCCCC1)N1Cc2cc(Oc3ccccc3)ncc2N=C1N)C1CCCCC1 [Compound 206]	91	0.18 µM and 0.12 µM	% Inhibition @ 1.0 μM [1]: 90%
CC(C)CNC(=O)CC[C@@H](C1CCCCC1)N1Cc2cc(Oc3ccccc3)ncc2N=C1N [Compound 208]	98	0.13 µM	–
CC(C)CN(C)CCC[C@@H](C1CCCCC1)N1Cc2cc(Oc3ccccc3)ncc2N=C1N [Compound 209]	93	0.12 µM	–
NC1=Nc2cnc(Oc3ccccc3)cc2CN1[C@@H](CCC(=O)NC[C@H]1CCCO1)C1CCCCC1 [Compound 210]	98	0.12 µM	–
NC1=Nc2cnc(Oc3ccccc3)cc2CN1[C@@H](CCCNC[C@H]1CCCO1)C1CCCCC1 [Compound 211]	88	0.16 µM	–
NC1=Nc2cnc(Oc3ccccc3)cc2CN1[C@@H](CCC(=O)NCC1CC1)C1CCCCC1 [Compound 212]	99	0.076 µM	–

Structure (SMILES)	inhibition at 1 µM [1] [%]	IC50 [2]	other results
NC1=Nc2cnc(Oc3ccccc3)cc2CN1[C@@H](CCCNCC1CC1)C1CCCCC1 [Compound 213]	88	0.24 µM	–
CC(C)(C)CNCC[C@@H](C1CCCCC1)N1Cc2cc(Oc3ccccc3)ncc2N=C1N [Compound 214]	57	0.93 µM and 1 µM	% Inhibition @ 1.0 μM [1]: 53%
CC(C)(C)CCNCC[C@@H](C1CCCCC1)N1Cc2cc(Oc3ccccc3)ncc2N=C1N [Compound 216]	96	0.087 µM and 0.12 µM	% Inhibition @ 1.0 μM [1]: 95%
CC(C)(C)CNC(=O)CC[C@@H](CC1CCOCC1)N1Cc2cc(Oc3ccccc3)ncc2N=C1N [Compound 219]	64	0.64 µM	–
CC(C)[C@H](C(=O)N(C)CCc1ccccc1)N1Cc2cc(Oc3ccccc3)ncc2N=C1N [Compound 221, 2-(2-Amino-6-phenoxy-4H-pyrido[3,4-d]pyrimidin-3-yl)-3,N-dimethyl-N-phenethyl-butyramide hydrochloride salt (R enantiomer)]	52	0.98 µM	–
CC(C)(C)OC[C@@H](NC(=O)CC[C@@H](C1CCCCC1)N1Cc2cc(Oc3ccccc3)ncc2N=C1N)C(=O)N[C@@H](CCC(=O)O)C(=O)O [Compound 224]	100	0.082 µM	–
CC(C)(C)OC[C@@H](NC(=O)CC[C@@H](C1CCCCC1)N1Cc2cc(Oc3ccccc3)ncc2N=C1N)C(=O)N[C@@H](CCC(=O)O)C(=O)O [Compound 225]	–	0.11 µM	% Inhibition @ 1.0 μM [1]: 96%
NC1=Nc2cnc(Oc3ccccc3)cc2CN1[C@@H](CN1C(=O)NC2(CCCCC2)C1=O)C1CCCCC1 [Compound 229, 3-[2-(2-Amino-6-phenoxy-4H-pyrido[3,4-d]pyrimidin-3-yl)-2-(R)-cyclohexyl-ethyl]-1,3-diaza-spiro[4.5]decane-2,4-dione]	78	0.39 µM	–
CC(C)[C@H](CCC(=O)OCc1ccccc1)N1Cc2cc(Oc3ccccc3)ncc2N=C1N [Compound 231, 4-(2-Amino-6-phenoxy-4H-pyrido[3,4-d]pyrimidin-3-yl)-5-methyl-hexanoic acid benzyl ester]	97	0.13 µM	–
CC(C)[C@H](COCCC1CCCCC1)N1Cc2cc(Oc3ccccc3)ncc2N=C1N [Compound 232, 3-[1-(2-cyclohexyl-ethoxymethyl)-(R)-(2-methyl-propyl)]-6-phenoxy-3,4-dihydro-pyrido[3,4-d]pyrimidin-2-ylamine]	99	0.11 µM	–
CC(C)=CCOC[C@@H](C(C)C)N1Cc2cc(Oc3ccccc3)ncc2N=C1N [Compound 233, 3-[2-Methyl-1-(3-methyl-but-2-enyloxymethyl)-propyl]-6-phenoxy-3,4-dihydro-pyrido[3,4-d]pyrimidin-2-ylamine]	52	0.88 µM	–
CC(C)[C@H](COCC1CCCCC1)N1Cc2cc(Oc3ccccc3)ncc2N=C1N [Compound 234]	94	0.18 µM	–
CC(C)C(COCC1CC(C2CCCCC2)=NO1)N1Cc2cc(Oc3ccccc3)ncc2N=C1N (centres unmarked) [Compound 235]	–	–	IC50 (IC50 (μM), recombinant enzyme): 0.61 µM; inhibition at 1 µM: 59%
CC(C)[C@H](COCC1CC(C(C)(C)C)=NO1)N1Cc2cc(Oc3ccccc3)ncc2N=C1N (some centres unmarked) [Compound 236, 3-[1-(3-tert-Butyl-4,5-dihydro-isoxazol-5-ylmethoxymethyl)-2-methyl-propyl]-6-phenoxy-3,4-dihydro-pyrido[3,4-d]pyrimidin-2-ylamine]	92	0.18 µM	–
CC(C)[C@H](COCc1cc(C(C)(C)C)no1)N1Cc2cc(Oc3ccccc3)ncc2N=C1N [Compound 237]	87	0.27 µM	–
CC(C)C(COCC1CC(CC(C)(C)C)=NO1)N1Cc2cc(Oc3ccccc3)ncc2N=C1N (centres unmarked) [Compound 238]	72	0.54 µM	–
CC(C)(C)c1cn(C[C@@H](C2CCCCC2)N2Cc3cc(Oc4ccccc4)ncc3N=C2NN)nn1 [Compound 245, {3-[2-(4-tert-Butyl-[1,2,3]triazol-1-yl)-1-(R)-cyclohexyl-ethyl]-6-phenoxy-3,4-dihydro-pyrido[3,4-d]pyrimidin-2-yl}-hydrazine]	–	–	inhibition at 10 µM [3]: 29%
CC(C)(C)c1cn(C[C@@H](C2CCCCC2)N2Cc3cc(Oc4ccccc4)ncc3N=C2NO)nn1 [Compound 246, N-{3-[2-(4-tert-Butyl-[1,2,3]triazol-1-yl)-1-(R)-cyclohexyl-ethyl]-6-phenoxy-3,4-dihydro-pyrido[3,4-d]pyrimidin-2-yl}-hydroxylamine]	–	–	inhibition at 10 µM [3]: 94%
